Data: US10590056B2, “ERR modulators and uses thereof” (CITY OF HOPE, priority 2017, dated 2020)

What was measured:
C2C12 myotubes = experiment: Fatty acid oxidation assay (3H-palmitate-BSA) in C2C12 myotubes; format: cell-based; details: 100 nM, 48 hours, compared to vehicle-treated controls
Description: (§1) FIGS. 7A-7C. […] FIG. 7A. 293 HEK cells expressing either GFP or ERRγ via adenoviral transduction were treated with either vehicle (DMSO) or 100 nM DY40 for 48 hours. Expression of endogenous SHP (NR0B2) was quantitated by real-time PCR. Values are normalized to β-actin transcript and reported relative to GFP untreated levels (=1.0). Data represent mean±S.E.M. for 3 independent trials. FIG. 7B. C2C12 myotubes were treated with either vehicle or 100 nM DY40 for 48 hours. Expression of endogenous SHP was measured by quantitative real-time PCR. Values are normalized to 36b4 (Rp1p0) transcript and reported relative to expression in DMSO treated cells (=1.0). Data represent mean±S.E.M. for 3 independent trials. *, P<0.05 DMSO versus DY40 treated values. FIG. 7C. C2C12 myotubes were treated with either vehicle or 100 nM DY40 for 48 hours. Oxidation of ^3H-palmitate-BSA was measured as described in Methods. […]
The analysis of fatty acid oxidation rates in cells was performed as previously described.^57 Fatty acid ^3H-[9,10]-palimitic acid was complexed to fatty acid-free BSA and this complex was added to 30 uM unlabeled palmitate. […] The substrate was removed and radiolabeled aqueous metabolites (^3H2O) released to the media were measured by scintillation counting. The calculated rates were normalized to total cellular protein.

[1] = test system: ERRγ target gene SHP (NR0B2); experiment: Endogenous SHP (NR0B2) expression by real-time PCR in 293 HEK cells expressing ERRγ via adenovirus; format: cell-based, human; details: 293HEK over-expressing ERRγ, 100 nM, 48 hours
Description: as §1, with “Methods. Values are normalized to total cellular protein and reported relative to expression in DMSO treated cells (=1.0).” for “Methods.”
(§2) Validation of DY40 effects on endogenous ERRγ target gene expression and metabolism in cell based models. […] We also evaluated the effects of the compound in C2C12 myotubes that have significant endogenous ERRγ expression. […]
(§3) Experimental transcript levels were normalized to 36B4 ribosomal RNA analyzed in separate reactions. […]

Human ERα = target: T1, Human ERα (Homo sapiens, UniProt P03372); experiment: Full-length ERα, estrogen receptor responsive reporter assay in CV-1 cells; format: cell-based; details: selectivity evaluation
T1 construct: Human ERα and ERβ were examined as full-length proteins using an estrogen receptor responsive reporter construct; expressed in transfected cells; host or cells: CV-1 cells, cytomegalovirus-driven expression vectors
T1 sequence (P03372 1-595): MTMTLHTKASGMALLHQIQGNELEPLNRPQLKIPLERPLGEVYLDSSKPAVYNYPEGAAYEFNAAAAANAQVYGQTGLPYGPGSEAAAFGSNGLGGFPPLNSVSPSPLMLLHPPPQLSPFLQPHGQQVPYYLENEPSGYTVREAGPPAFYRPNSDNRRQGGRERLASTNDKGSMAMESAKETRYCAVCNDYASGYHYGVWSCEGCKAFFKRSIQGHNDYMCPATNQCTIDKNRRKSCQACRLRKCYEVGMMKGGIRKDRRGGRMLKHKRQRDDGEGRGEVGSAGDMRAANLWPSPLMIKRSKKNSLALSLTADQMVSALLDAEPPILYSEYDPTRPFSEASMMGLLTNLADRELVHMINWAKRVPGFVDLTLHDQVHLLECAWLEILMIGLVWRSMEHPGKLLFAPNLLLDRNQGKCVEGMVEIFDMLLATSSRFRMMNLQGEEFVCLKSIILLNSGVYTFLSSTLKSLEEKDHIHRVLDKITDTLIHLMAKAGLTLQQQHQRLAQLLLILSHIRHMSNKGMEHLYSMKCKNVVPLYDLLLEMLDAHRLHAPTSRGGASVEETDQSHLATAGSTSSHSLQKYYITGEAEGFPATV
Description: Cell based transactivation assays were performed in CV-1 cells as described.^49 ERR activity was assayed with a GAL4 reporter construct and fusion proteins containing the ligand binding domains of human ERRα, human ERRβ and mouse ERRγ linked to the DNA binding domain of yeast GAL4. Human ERα and ERβ were examined as full-length proteins using an estrogen receptor responsive reporter construct. Reporter constructs (300 ng/10^5 cells) and cytomegalovirus-driven expression vectors (20-50 ng/10^5 cells) were added as indicated along with CMX-β-gal (500 ng/10^5 cells) as an internal control. Cells were transiently transfected by Lipofectamine as described.^56 Cells were incubated with DNA complexed liposomes for 2 hours and subsequently treated for approximately 45 hr with phenol red free DMEM FBS containing the indicated compounds. After exposure to ligand, the cells were harvested and assayed for luciferase and β-galactosidase activity. All points were assayed in triplicate and varied by less than 15%. Each experiment was repeated three or more times with similar results. Fold activation is reported.

ERRγ target gene SHP = experiment: Endogenous SHP transcript by real-time PCR in C2C12 myotubes; format: cell-based, mouse; details: 100 nM, 48 hours, vs DMSO
Description: as §1, with “Methods. Values are normalized to total cellular protein and reported relative to expression in DMSO treated cells (=1.0).” for “Methods.”
as §2, §3

CC(=O)Oc1ccc(/C(=C(/c2ccccc2)C(C)C)c2ccc(OCCN(C)C)cc2)cc1 [Compound 4a, (E)-4-{1-[4-(2-dimethylamino-ethoxy)-phenyl]-3-methyl-2-phenyl-but-1-enyl}-phenyl acetate]
change in palmitate oxidation rates (C2C12 myotubes): −42% | ERRγ mediated induction of SHP transcript [1]: completely blocked | ERα antagonist activity, in words (Human ERα): remains an antagonist potency of ERα | repression of endogenous SHP transcript levels (ERRγ target gene SHP): ~60%
